Data from ChEMBL document CHEMBL3734723, “Synthesis and anticancer activity of 6-heteroarylcoumarins” (2015).

Key:
Assay type in all cases: functional
[1] = Growth inhibition of human SNB19 cells incubated for 48 hrs by sulforhodamine B assay; conditions: SNB-19, 48 h, read-out: LC50 (the source's name)
HT-29 = test: Growth inhibition of human HT-29 cells incubated for 48 hrs by sulforhodamine B assay; conditions: HT-29, 48 h
NCI-H23 = test: Growth inhibition of human NCI-H23 cells incubated for 48 hrs by sulforhodamine B assay; conditions: NCI-H23, 48 h
[2] = Growth inhibition of human UACC62 cells incubated for 48 hrs by sulforhodamine B assay; conditions: UACC-62, 48 h
A549 = test: Growth inhibition of human A549 cells incubated for 48 hrs by sulforhodamine B assay; conditions: A549, 48 h
[3] = Cytotoxicity against human NCI-ADR-RES cells assessed as cell growth at 10 uM incubated for 48 hrs by sulforhodamine B assay; conditions: read-out: Activity
[4] = Growth inhibition of human CNS cancer cells after 48 hrs by sulforhodamine B assay; conditions: Cancer cell lines
[5] = Growth inhibition of human DU145 cells incubated for 48 hrs by sulforhodamine B assay; conditions: DU-145, 48 h
[6] = Cytotoxicity against human SF295 cells assessed as cell growth at 10 uM incubated for 48 hrs by sulforhodamine B assay; conditions: SF-295, 48 h, read-out: Activity
[7] = Growth inhibition of human IGROV1 cells incubated for 48 hrs by sulforhodamine B assay; conditions: IGROV-1, 48 h
SR = test: Cytotoxicity against human SR cells assessed as cell growth at 10 uM incubated for 48 hrs by sulforhodamine B assay; conditions: read-out: Activity
Malme-3M [8] = test: Cytotoxicity against human MALME-3M cells assessed as cell growth at 10 uM incubated for 48 hrs by sulforhodamine B assay; conditions: read-out: Activity
MDA-MB-435 = test: Cytotoxicity against human MDA-MB-435 cells assessed as cell growth at 10 uM incubated for 48 hrs by sulforhodamine B assay; conditions: MDA-MB-435, 48 h, read-out: Activity
MDA-MB-231 [9] = test: Growth inhibition of human MDA-MB-231 cells incubated for 48 hrs by sulforhodamine B assay; conditions: MDA-MB-231, 48 h
[10] = Cytotoxicity against human UO31 cells assessed as cell growth at 10 uM incubated for 48 hrs by sulforhodamine B assay; conditions: UO-31, 48 h, read-out: Activity
[11] = Growth inhibition of human HOP62 cells incubated for 48 hrs by sulforhodamine B assay; conditions: HOP-62, 48 h
[12] = Growth inhibition of human NCI-ADR-RES cells incubated for 48 hrs by sulforhodamine B assay
[13] = Growth inhibition of human SNB75 cells incubated for 48 hrs by sulforhodamine B assay; conditions: SNB-75, 48 h
NCI-H522 = test: Cytotoxicity against human NCI-H522 cells assessed as cell growth at 10 uM incubated for 48 hrs by sulforhodamine B assay; conditions: NCI-H522, 48 h, read-out: Activity
[14] = Growth inhibition of human SW620 cells incubated for 48 hrs by sulforhodamine B assay; conditions: SW-620, 48 h
[15] = Growth inhibition of human UACC257 cells incubated for 48 hrs by sulforhodamine B assay; conditions: UACC-257, 48 h
[16] = Growth inhibition of human breast cancer cells after 48 hrs by sulforhodamine B assay; conditions: Cancer cell lines
[17] = Cytotoxicity against human PC3 cells assessed as cell growth at 10 uM incubated for 48 hrs by sulforhodamine B assay; conditions: PC-3, 48 h, read-out: Activity
A498 = test: Growth inhibition of human A498 cells incubated for 48 hrs by sulforhodamine B assay; conditions: A498, 48 h
[18] = Growth inhibition of human COLO205 cells incubated for 48 hrs by sulforhodamine B assay; conditions: COLO 205, 48 h
[19] = Cytotoxicity against human TK10 cells assessed as cell growth at 10 uM incubated for 48 hrs by sulforhodamine B assay; conditions: TK-10, 48 h, read-out: Activity
Malme-3M [20] = test: Growth inhibition of human MALME-3M cells incubated for 48 hrs by sulforhodamine B assay
[21] = Growth inhibition of human prostate cancer cells after 48 hrs by sulforhodamine B assay; conditions: Cancer cell lines
[22] = Cytotoxicity against human SNB19 cells assessed as cell growth at 10 uM incubated for 48 hrs by sulforhodamine B assay; conditions: SNB-19, 48 h, read-out: Activity
[23] = Growth inhibition of human OVCAR8 cells incubated for 48 hrs by sulforhodamine B assay; conditions: OVCAR-8, 48 h
[24] = Growth inhibition of human HOP92 cells incubated for 48 hrs by sulforhodamine B assay; conditions: HOP-92, 48 h
[25] = Cytotoxicity against human IGROV1 cells assessed as cell growth at 10 uM incubated for 48 hrs by sulforhodamine B assay; conditions: IGROV-1, 48 h, read-out: Activity
MDA-MB-231 [26] = test: Cytotoxicity against human MDA-MB-231 cells assessed as cell growth at 10 uM incubated for 48 hrs by sulforhodamine B assay; conditions: MDA-MB-231, 48 h, read-out: Activity
[27] = Cytotoxicity against human OVCAR4 cells assessed as cell growth at 10 uM incubated for 48 hrs by sulforhodamine B assay; conditions: OVCAR-4, 48 h, read-out: Activity
NCI-H226 = test: Growth inhibition of human NCI-H226 cells incubated for 48 hrs by sulforhodamine B assay; conditions: NCI-H226, 48 h
[28] = Cytotoxicity against human Hs578T cells assessed as cell growth at 10 uM incubated for 48 hrs by sulforhodamine B assay; conditions: Hs-578T, read-out: Activity
[29] = read-out: LC50 (the source's name)

## Cc1cc(=O)oc2c(C)c(O)c(-c3cc4ccc(F)cc4[nH]3)cc12
[1]
  CC50: > 100 µM
HT-29
  GI50: 10.2 µM
  TGI: 23 µM
HT-29; [29]
  CC50: 52 µM
NCI-H23
  GI50: 2.07 µM
  TGI: 8.99 µM
NCI-H23; [29]
  CC50: 75.3 µM
[2]
  GI50: 2.19 µM
  TGI: 13.2 µM
[2]; [29]
  CC50: 39.4 µM
A549
  GI50: 3.82 µM
  TGI: 15 µM
A549; [29]
  CC50: 58.4 µM
[3]
  growth at 10 µM: 20.7%
[4]
  GI50: 3.89 µM
  TGI: 17.5 µM
[4]; [29]
  CC50: 72.9 µM
[5]
  GI50: 3.53 µM
  TGI: 18.4 µM
[5]; [29]
  CC50: > 100 µM
[6]
  growth at 10 µM: 33%
[7]
  GI50: 2.3 µM
  TGI: 13.7 µM
[7]; [29]
  CC50: 62.8 µM
SR
  growth at 10 µM: 28.4%
Malme-3M [8]
  growth at 10 µM: 31.9%
MDA-MB-435
  growth at 10 µM: 32.4%
MDA-MB-231 [9]
  GI50: 2.49 µM
  TGI: 10.2 µM
MDA-MB-231 [9]; [29]
  CC50: > 100 µM
[10]
  growth at 10 µM: 21.6%
[11]
  GI50: 2.98 µM
  TGI: 15.9 µM
[11]; [29]
  CC50: 45.4 µM
[12]
  GI50: 2.82 µM
  TGI: 12.7 µM
[12]; [29]
  CC50: > 100 µM
[13]
  GI50: 5.7 µM
  TGI: 24 µM
[13]; [29]
  CC50: 78.3 µM
NCI-H522
  growth at 10 µM: 15%
[14]
  GI50: 3.54 µM
  TGI: 15.2 µM
[14]; [29]
  CC50: 52.2 µM
[15]
  GI50: 1.82 µM
  TGI: 3.78 µM
[15]; [29]
  CC50: 7.87 µM
[16]
  GI50: 2.67 µM
  TGI: 14.2 µM
[16]; [29]
  CC50: 89.3 µM
[17]
  growth at 10 µM: 27.5%
A498
  GI50: 1.93 µM
  TGI: 6.21 µM
A498; [29]
  CC50: 25.8 µM
[18]
  GI50: 11.7 µM
  TGI: 25.6 µM
[18]; [29]
  CC50: 56 µM
[19]
  growth at 10 µM: 59.9%
Malme-3M [20]
  GI50: 1.95 µM
  TGI: 7.32 µM
Malme-3M [20]; [29]
  CC50: 50.2 µM
[21]
  GI50: 3.09 µM
  TGI: 14.2 µM
[21]; [29]
  CC50: > 100 µM
[22]
  growth at 10 µM: 31.6%
[23]
  GI50: 3.88 µM
  TGI: 24 µM
[23]; [29]
  CC50: > 100 µM
[24]
  GI50: 0.95 µM
  TGI: 4.17 µM
[24]; [29]
  CC50: 29.9 µM
[25]
  growth at 10 µM: 33.2%
MDA-MB-231 [26]
  growth at 10 µM: 59.3%
[27]
  growth at 10 µM: 33.7%
NCI-H226
  GI50: 3.34 µM
  TGI: 22.1 µM
NCI-H226; [29]
  CC50: > 100 µM
[28]
  growth at 10 µM: 42.1%
